Data reported in PubChem BioAssay AID256 (DTP/NCI, 2004).
Several values for one entry are separate records, joined by “and”; a condition that tells them apart may be missing. Equal values may be shown once. Inconclusive results and toxic doses are left out.

Test system: CD2F1 mice, L1210 leukemia ip, survival T/C
Assay: NCI In Vivo Anticancer Drug Screen. Data for tumor model L1210 Leukemia (intraperitoneal) in CD2F1 (CDF1) mice
Conditions: higher = longer survival
In short: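 Transplantable tumor in mice; compound-treated vs vehicle-treated groups. Read-out = treated/control ratio of the measured endpoint.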

[1] = endpoint: mean survival time, dose: 12.5 mg/kg/injection, schedule: Q01DX009 (ip), vehicle: saline with Tween-80
[2] = endpoint: mean survival time, dose: 50.0 mg/kg/injection, schedule: Q01DX009 (ip), vehicle: saline with Tween-80
[3] = endpoint: mean survival time, dose: 100.0 mg/kg/injection, schedule: Q01DX009 (ip), vehicle: saline with Tween-80
[4] = endpoint: mean survival time, dose: 200.0 mg/kg/injection, schedule: Q01DX009 (ip), vehicle: saline with Tween-80
[5] = endpoint: mean survival time, dose: 100.0 mg/kg/injection, schedule: Q04DX003 (ip), vehicle: saline with Tween-80
[6] = endpoint: mean survival time, dose: 200.0 mg/kg/injection, schedule: Q04DX003 (ip), vehicle: saline with Tween-80
[7] = endpoint: mean survival time, dose: 100.0 mg/kg/injection, schedule: Q01DX001 (ip), vehicle: saline
[8] = endpoint: mean survival time, dose: 200.0 mg/kg/injection, schedule: Q01DX001 (ip), vehicle: saline
[9] = endpoint: mean survival time, dose: 400.0 mg/kg/injection, schedule: Q01DX001 (ip), vehicle: saline
[10] = endpoint: mean survival time, dose: 400.0 mg/kg/injection, schedule: Q04DX003 (ip), vehicle: saline with Tween-80
[11] = endpoint: mean survival time, dose: 100.0 mg/kg/injection, schedule: Q04DX003 (ip), vehicle: saline
[12] = endpoint: mean survival time, dose: 200.0 mg/kg/injection, schedule: Q04DX003 (ip), vehicle: saline

SMILES: CNc1cccnc1/C=N/NC(N)=S
- T/C [1]: 104 % of control
- T/C [2]: 154 % of control
- T/C [3]: 162 % of control
- T/C [4]: 181 % of control
- T/C (endpoint: mean survival time, dose: 400.0 mg/kg/injection, schedule: Q01DX009 (ip), vehicle: saline with Tween-80): 90 % of control

SMILES: Cc1c2ccccc2c(C)c2c1cc(C(=O)O)c1ccccc12
- T/C (endpoint: mean survival time, dose: 12.5 mg/kg/injection, schedule: Q04DX002 (ip), vehicle: Klucel (hydroxypropylcellulose) (HPC)): 106 % of control
- T/C (endpoint: mean survival time, dose: 25.0 mg/kg/injection, schedule: Q04DX002 (ip), vehicle: Klucel (hydroxypropylcellulose) (HPC)): 101 % of control
- T/C (endpoint: mean survival time, dose: 50.0 mg/kg/injection, schedule: Q04DX002 (ip), vehicle: Klucel (hydroxypropylcellulose) (HPC)): 106 % of control
- T/C (endpoint: mean survival time, dose: 100.0 mg/kg/injection, schedule: Q04DX002 (ip), vehicle: Klucel (hydroxypropylcellulose) (HPC)): 107 % of control
- T/C (endpoint: mean survival time, dose: 150.0 mg/kg/injection, schedule: Q04DX002 (ip), vehicle: Klucel (hydroxypropylcellulose) (HPC)): 112 % of control
- T/C (endpoint: median survival time, dose: 25.0 mg/kg/injection, schedule: Q01DX009 (ip), vehicle: sodium bicarbonate): 111 % of control
- T/C (endpoint: median survival time, dose: 50.0 mg/kg/injection, schedule: Q01DX009 (ip), vehicle: sodium bicarbonate): 115 % of control and 117 % of control
- T/C (endpoint: median survival time, dose: 200.0 mg/kg/injection, schedule: Q01DX009 (ip), vehicle: sodium bicarbonate): 122 % of control
- T/C (endpoint: median survival time, dose: 400.0 mg/kg/injection, schedule: Q01DX009 (ip), vehicle: sodium bicarbonate): 107 % of control

SMILES: NNC(=O)CCc1ccccc1Br
- T/C [2]: 92 % of control and 102 % of control
- T/C [3]: 102 % of control and 103 % of control
- T/C [5]: 100 % of control
- T/C [4]: 93 % of control
- T/C [6]: 97 % of control

SMILES: CC=C(CCCC)CCCC
- T/C [7]: 107 % of control
- T/C [8]: 102 % of control
- T/C [9]: 103 % of control

SMILES: O=C(O)C(Br)CCC(Br)C(=O)O (configuration not stated)
- T/C (endpoint: mean survival time, dose: 100.0 mg/kg/injection, schedule: Q01DX001 (ip), vehicle: other): 102 % of control
- T/C (endpoint: mean survival time, dose: 200.0 mg/kg/injection, schedule: Q01DX001 (ip), vehicle: other): 102 % of control
- T/C (endpoint: mean survival time, dose: 400.0 mg/kg/injection, schedule: Q01DX001 (ip), vehicle: other): 97 % of control

SMILES: CCOC(=O)C1=C(N)SC(=O)C1
- T/C [5]: 100 % of control
- T/C [6]: 104 % of control
- T/C [10]: 95 % of control

SMILES: COc1ccc2c(c1)OC(OC)(c1ccc(OC)c(OC)c1)C(O)(OC)C2=O (configuration not stated)
- T/C (endpoint: mean survival time, dose: 50.0 mg/kg/injection, schedule: Q01DX001 (ip), vehicle: saline): 102 % of control
- T/C [7]: 98 % of control
- T/C [8]: 98 % of control
- T/C [9]: 96 % of control

SMILES: CC1(c2ccc(Cl)cc2)OC(=O)C(=Cc2ccc([N+](=O)[O-])s2)C(=O)O1 (configuration not stated)
- T/C (endpoint: mean survival time, dose: 6.25 mg/kg/injection, schedule: Q01DX009 (ip), vehicle: saline with Tween-80): 101 % of control
- T/C [1]: 98 % of control and 101 % of control
- T/C (endpoint: mean survival time, dose: 25.0 mg/kg/injection, schedule: Q01DX009 (ip), vehicle: saline with Tween-80): 96 % of control and 100 % of control
- T/C [2]: 100 % of control and 101 % of control
- T/C [3]: 102 % of control and 112 % of control
- T/C [4]: 97 % of control

SMILES: CC(/C=C/c1ccccc1)=Nc1ccccc1
- T/C [5]: 106 % of control
- T/C [6]: 103 % of control
- T/C [10]: 106 % of control
- T/C (endpoint: median survival time, dose: 12.5 mg/kg/injection, schedule: Q01DX009 (ip), vehicle: saline with Tween-80): 108 % of control
- T/C (endpoint: median survival time, dose: 25.0 mg/kg/injection, schedule: Q01DX009 (ip), vehicle: saline with Tween-80): 98 % of control
- T/C (endpoint: median survival time, dose: 50.0 mg/kg/injection, schedule: Q01DX009 (ip), vehicle: saline with Tween-80): 111 % of control
- T/C (endpoint: median survival time, dose: 100.0 mg/kg/injection, schedule: Q01DX009 (ip), vehicle: saline with Tween-80): 107 % of control
- T/C (endpoint: median survival time, dose: 200.0 mg/kg/injection, schedule: Q01DX009 (ip), vehicle: saline with Tween-80): 104 % of control

SMILES: CN(C)CCOS(C)(=O)=O
- T/C [11]: 100 % of control
- T/C [12]: 98 % of control
- T/C (endpoint: mean survival time, dose: 400.0 mg/kg/injection, schedule: Q04DX003 (ip), vehicle: saline): 100 % of control

SMILES: Brc1ccccc1CCc1ccccc1Br
- T/C (endpoint: mean survival time, dose: 50.0 mg/kg/injection, schedule: Q04DX003 (ip), vehicle: saline): 97 % of control
- T/C [11]: 95 % of control
- T/C [12]: 100 % of control
